# How the values were obtained:
# Type in all cases: in vivo
# [1] = tested on: female NMRI-mice; assay: Gastric emptying and intestinal passage in mice
# Protocol: Female NMRI-mice of a body weight between 20 and 30 g were used. Mice were adapted to housing conditions for at least one week.
# Mice were overnight fasted, while water remained available all the time. On the study day, mice were weighed, single-caged and allowed access to 500 mg of feed for 30 min, while water was removed. At the end of the 30 min feeding period, remaining feed was removed and weighed. 60 min later, a coloured, non-caloric bolus was instilled via gavage into the stomach. The test compound/reference compound or its vehicle in the control group was administered subcutaneously, to reach Cmax when coloured bolus was administered. After another 30 min, the animals were sacrificed and the stomach and the small intestine prepared. The filled stomach was weighed, emptied, carefully cleaned and dried and reweighed. The calculated stomach content indicated the degree of gastric emptying. The small intestine was straightened without force and measured in length. Then the distance from the gastric beginning of the gut to the tip of the farthest travelled intestinal content bolus was measured. The intestinal passage was given as relation in percent of the latter distance and the total length of the small intestine.
# Statistical analyses were performed with Everstat 6.0 by 1-way-ANOVA, followed by Dunnetts or Newman-Keuls as post-hoc test, respectively. Differences were considered statistically significant at the p<0.05 level. As post hoc test Dunnet's Test was applied to compare versus vehicle control, only. Newman-Keul's Test was applied for all pairwise comparisons (i.e. versus vehicle and reference groups).
# 30 min later, the assessment of stomach contents and intestinal passage was done (FIG. 1a, b).
# In another study, female NMRI-mice, weighing on average 25-30 g, were administered subcutaneously 0.02 and 0.002 mg/kg of SEQ ID NO: 97 or phosphate buffered saline (vehicle control), 30 min prior to the administration of the coloured bolus. 30 min later, the assessment of stomach contents and intestinal passage was done (FIG. 1c, d).
# [2] = Subchronic effect on body weight and body fat in female DIO C57BL/6NCrl mice; details: 4 weeks, mean
# Protocol: Female C57BL/6NCrl mice were housed in groups in a specific pathogen-free barrier facility on a 12-h light/dark cycle with free access to water and high-fat diet. After 10 months on high-fat diet, mice were stratified to treatment groups (n=8), so that each group had similar mean body weight.
# 2) Subchronic effect on body weight: all animals were treated once daily s.c. in the morning, at the beginning of the light phase (12 h lights on) with either vehicle or exendin-4 derivatives at the abovementioned doses for 4 weeks. Body weight was recorded daily. On days 6 and 28, total fat mass was measured by nuclear magnetic resonance (NMR) using a Bruker minispec (Ettlingen, Germany).
# Statistical analyses were performed with Everstat 6.0 by repeated measures two-way ANOVA and Dunnetts post-hoc analyses (glucose profile) and 1-way-ANOVA, followed by Dunnetts post-hoc test (body weight, body fat). Differences versus vehicle-treated DIO control mice were considered statistically significant at the p<0.05 level.
# Female obese C57BL/6NCrl mice were treated for 4 weeks once daily subcutaneously in the morning, at the beginning of the light phase (12 h lights on) with 3, 10 or 100 μg/kg SEQ ID NO: 97 or vehicle. Body weight was recorded daily, and body fat content was determined before the start of treatment and after 4 weeks of treatment.
# [3] = tested on: female leptin-receptor deficient diabetic db/db mice; assay: Acute effect on blood glucose in fed female db/db mice
# Text: Female BKS.Cg-m+/+Leprdb/J (db/db) and BKS.Cg-m+/+Leprdb/+ (lean control) mice were obtained from Charles River Laboratories, Germany, at an age of 9-10 weeks. The animals were housed in groups in a specific pathogen-free barrier facility on a 12-h light/dark cycle with free access to water and rodent-standard chow. After 1 week of acclimatization, blood samples were drawn from the tail without anaesthesia and blood glucose (method: d-glucose hexokinase, hemolysate, AU640 Beckman Coulter) and HbA1c level (method: hemolysate, Cobas6000 c501, Roche Diagnostics, Germany) were determined.
# Db/db mice were stratified to treatment groups (n=8), so that each group had similar baseline blood glucose and HbA1c levels.
# 1) Acute effect on blood glucose in fed db/db mice: initial blood samples were taken just before first administration (s.c.) of vehicle (phosphate buffer solution) or exendin-4 derivatives at doses of 3, 10, and 100 μg/kg (dissolved in phosphate puffer), respectively. The volume of administration was 5 mL/kg. The animals had access to water and chow during the experiment, food consumption was determined at all time points of blood sampling. Blood glucose levels were measured at t=0.5 h, t=1 h, t=2 h, t=4 h, t=6 h, t=8 h, and t=24 h. Blood sampling was performed by tail incision without anaesthesia.
# Statistical analyses were performed with Everstat 6.0 by repeated measures two-way ANOVA and Dunnetts post-hoc analyses. Differences versus vehicle-treated db/db control mice were considered statistically significant at the p<0.05 level.
# After blood sampling to determine the blood glucose baseline level, fed diabetic female db/db mice were administered 3, 10 or 100 μg/kg of SEQ ID NO: 97 or phosphate buffered solution (vehicle-treated db/db control) subcutaneously. At predefined time points, more blood samples were taken to measure blood glucose and generate the blood glucose profile over 24 h. […]
# [4] = 0.002 mg/kg s.c., versus PBS-control (second study)
# [5] = 0.02 mg/kg s.c., study with reference compound Liraglutide, versus vehicle
# [6] = 0.02 mg/kg s.c., versus PBS-control (second study)
substance,measurement,setting,value
"SEQ ID NO: 97: exendin-4 derivative, K(γE-x53) in position 14 (HXQGTFTSDLSKQKDSRRAQDFIEWLKNGGPSSGAPPPS; K14 side chain γE-x53; Exendin-4-analogue)",gastric content increased by,[1]; [4],47%
same,intestinal passage reduced by,[1]; [4],63%
same,gastric content increased by,[1]; [5],90%
same,intestinal passage reduced by,[1]; [5],67%
same,gastric content increased by,[1]; [6],37%
same,intestinal passage reduced by,[1]; [6],43%
same,Body fat change,[2]; 3 μg/kg s.c. once daily,-0.5 g
same,Overall weight change,[2]; 3 μg/kg s.c. once daily,-0.9 g
same,Body fat change,[2]; 10 μg/kg s.c. once daily,-2.5 g
same,Overall weight change,[2]; 10 μg/kg s.c. once daily,-3.0 g
same,Body fat change,[2]; 100 μg/kg s.c. once daily,-2.4 g
same,Overall weight change,[2]; 100 μg/kg s.c. once daily,-2.3 g
same,duration of decrease in blood glucose compared to db/db control mice,[3]; high dose (100 μg/kg s.c.),> 24 h
same,duration of decrease in blood glucose compared to db/db control mice,[3]; low dose (3 μg/kg s.c.),up to 8 h
same,duration of decrease in blood glucose compared to db/db control mice,[3]; medium dose (10 μg/kg s.c.),up to 8 h
